Laboratory results reported in patent publication US20070004653A1, “Stable lyophilized anthracycline glycosides” (priority 2005, published 2007).
Like-named read-outs stand apart in the source and are kept apart here.

How the values were obtained:
[1] = cited from earlier work
[2] = cited from earlier work; remark: listed apart in the source
[3] = Stability tests of lyophilized Idarubicin HCl, not stabilized and stabilized: pH, aglycone, bis-anhydro before and after lyophilization; assay type: physicochemical
Procedure: Starting product was idarubicin hydrochloride, 1% w/v in water, containing amount of free HCl. No additional chemicals were added. Most of the solution was frozen and lyophilized. […]
To obtain idarubicin hydrochloride containing a trace amount of free HCl, idarubicin HCl was slurried in 20 volumes of a mixture of dichloromethane:methanol (90:10) containing a 1% molar amount of HCl with respect to the molar amount of idarubicin hydrochloride. The slurry was filtered off and washed with the same solvent mixture and then dried under vacuum at room temperature, until constant weight.
Starting product was idarubicin hydrochloride: 1% w/v in water, containing a trace amount of free HCl. 1.5% mol of both NH4OAc and AcOH with respect to idarubicin hydrochloride were added. Most of the solution was frozen and lyophilized. […]
Starting product was idarubicin hydrochloride, 1% w/v in water, containing a trace amount of free HCl. The solution was first decolorized with charcoal and 1.5% mol of both NH4OAc and AcOH with respect to idarubicin hydrochloride were added. Most of the solution was frozen and lyophilized. […]
Starting product was idarubicin hydrochloride, 1% w/v in water, containing a trace amount of free HCl. 0.65% mol of both NH4OAc and AcOH (0.1% and 0.08% w/w, respectively) with respect to idarubicin hydrochloride were added. Most of the solution was frozen and lyophilized. […]
Starting product was idarubicin hydrochloride, 1% w/v in water, containing a trace amount of free HCl. 0.1% w/w of NH4HCO3 and gaseous CO2 were added. Most of the solution was frozen and lyophilized. […]
Starting product was idarubicin hydrochloride, 1% w/v in water, containing a trace amount of free HCl. 0.1% w/w of NaHCO3 and gaseous CO2 were added. Most of the solution was frozen and lyophilized. […]
Starting product was idarubicin hydrochloride, 1% w/v in water, containing a trace amount of free HCl. 1.0% molar amount of AMBERLITE® IRA-67 (1.6 M) acetate and 0.8% molar amount of acetic acid with respect to idarubicin hydrochloride were added. The solution was filtered through a 0.4 micron membrane then it was frozen and lyophilized.

[4] = Example 16: solution to load into lyophilizer, no additional chemicals
[5] = Example 26: solution + 1.5% mol of both NH4OAc/AcOH to load into lyophilizer
[6] = Example 27: solution decolorized with charcoal + 1.5% mol of both NH4OAc/AcOH to load into lyophilizer
[7] = Example 28: solution + 0.65% mol of both NH4OAc/AcOH to load into lyophilizer
[8] = Example 29: lyophilized product obtained (NH4HCO3 + CO2)
[9] = Example 29: solution + 0.1% w/w of NH4HCO3 and gaseous CO2 to saturation, to load into lyophilizer
[10] = Example 30: lyophilized product obtained (NaHCO3 + CO2)
[11] = Example 30: solution + 0.1% w/w of NaHCO3 and gaseous CO2 to saturation, to load into lyophilizer
[12] = Example 31: solution + 1.0% mol of IRA-67 acetate and 0.8% mol of acetic acid, slurried 2 hr, filtered, loaded into lyophilizer

For CC(=O)[C@]1(O)Cc2c(O)c3c(c(O)c2[C@@H](O[C@H]2C[C@@H](N)[C@H](O)C(C)O2)C1)C(=O)c1ccccc1C3=O.Cl (stereo partly drawn) [Idarubicin HCl, Idarubicin hydrochloride], the “pH in a 0.5% w/v solution in water” value [1] is given as 5.0-6.5, the solubility ([2]; in acetone, chloroform, and methylene chloride) is given as “practically insoluble” and the solubility ([2]; in water, methanol, and other polar solvents like dimethylformamide) is given as “soluble”. For the same molecule, the solubility ([2]; in water) was “not very soluble”, the “% aglycone” value ([3]; Example 16: lyophilized product obtained, not stabilized) was 0.29% and the “% aglycone” value [3, 4] was 0.14%. For the same molecule, the “pH of the solution as 1% w/v” value [3, 4] was 5.36, the “pH of the solution diluted to 0.5% w/v” value [3, 4] was 6.32 and the “% aglycone” value ([3]; Example 26: lyophilized product obtained (1.5% mol of both NH4OAc/AcOH)) was 0.16%. For the same molecule, the “% aglycone” value [3, 5] was 0.14%, the “pH of the solution as 1% w/v” value [3, 5] was 5.14 and the “pH of the solution diluted to 0.5% w/v” value [3, 5] was 5.26. The “% aglycone” value ([3]; Example 27: lyophilized product obtained (charcoal + 1.5% mol of both NH4OAc/AcOH)) was 0.04%, the “% aglycone” value [3, 6] was 0.03% and the “pH of the solution as 1% w/v” value [3, 6] was 5.85. The “pH of the solution diluted to 0.5% w/v” value [3, 6] was 6.05, the “% aglycone” value ([3]; Example 28: lyophilized product obtained (0.65% mol of both NH4OAc/AcOH)) was 0.19% and the “% aglycone” value [3, 7] was 0.15%. The “pH of the solution diluted to 0.5% w/v” value [3, 7] was 5.72, the “% aglycone” value [3, 8] was 0.16% and the “% bis-anhydro” value [3, 8] was 0.05%. The “% aglycone” value [3, 9] was 0.15%, the “% bis-anhydro” value [3, 9] was 0.06% and the “pH of the solution diluted to 0.5% w/v” value [3, 9] was 5.73. For the same molecule, the “% aglycone” value [3, 10] was 0.16%, the “% bis-anhydro” value [3, 10] was 0.05% and the “% aglycone” value [3, 11] was 0.15%. The “% bis-anhydro” value [3, 11] was 0.05%, the “pH of the solution diluted to 0.5% w/v” value [3, 11] was 6.14 and the “% aglycone” value ([3]; Example 31: lyophilized product obtained (IRA-67 acetate + acetic acid)) was 0.18%. For the same molecule, the “% aglycone” value [3, 12] was 0.15%, the “pH of the solution after dilution to 0.5% w/v” value [3, 12] was 5.82 and the “% aglycone” value ([3]; starting solid idarubicin HCl containing a trace amount of HCl) was 0.14%.
